Results reported in ChEMBL document CHEMBL1201862, “PubChem BioAssay data set” (2004).
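Growth conditions: 96-well plates. Treatment: test compound, 48 hours, 5 concentrations. Analysis: linear interpolation between bracketing concentrations; unreached endpoints set to highest concentration. The concentration for 50% growth inhibition is given as GI50.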 Calls of active or inactive are those of the source. No stated cut-off is given here; in the data, active = GI50 up to about 1.1 µM and inactive = higher.

Columns and labels:
Experiment in all cases: inhibition of tumour cell growth, NCI panel, 48 h
[1] = tested on: 786-0
[2] = tested on: A498
[3] = tested on: A549
[4] = tested on: ACHN
[5] = tested on: BT-549
[6] = tested on: CAKI-1
[7] = tested on: CCRF-CEM
[8] = tested on: COLO 205
[9] = tested on: DU-145
[10] = tested on: EKVX
[11] = tested on: HCC 2998
[12] = tested on: HCT-116
[13] = tested on: HCT-15
[14] = tested on: HL-60
[15] = tested on: HOP-62
[16] = tested on: HOP-92
[17] = tested on: HT-29
[18] = tested on: Hs-578T
[19] = tested on: IGROV-1
[20] = tested on: K562
[21] = tested on: KM12
[22] = tested on: LOX IMVI
[23] = tested on: M14
[24] = tested on: MCF7
[25] = tested on: MDA-MB-231
[26] = tested on: MDA-MB-435
[27] = tested on: MDA-N
[28] = tested on: MOLT-4
[29] = tested on: Malme-3M
[30] = tested on: NCI-H226
[31] = tested on: NCI-H23
[32] = tested on: NCI-H460
[33] = tested on: NCI-H522
[34] = tested on: NCI/ADR-RES
[35] = tested on: OVCAR-3
[36] = tested on: OVCAR-4
[37] = tested on: OVCAR-5
[38] = tested on: OVCAR-8
[39] = tested on: PC-3
[40] = tested on: RPMI-8226
[41] = tested on: RXF 393
[42] = tested on: SF-268
[43] = tested on: SF-295
[44] = tested on: SF-539
[45] = tested on: SK-MEL-28
[46] = tested on: SK-MEL-2
[47] = tested on: SK-MEL-5
[48] = tested on: SK-OV-3
[49] = tested on: SN12C
[50] = tested on: SNB-19
[51] = tested on: SNB-75
[52] = tested on: SR
[53] = tested on: SW-620
[54] = tested on: T47D
[55] = tested on: TK-10
[56] = tested on: U-251
[57] = tested on: UACC-257
[58] = tested on: UACC-62
[59] = tested on: UO-31

Measured: GI50

CCC(=C/[C@H](C)C/C=C/C(C)=C/[C@@H](C)C(=O)[C@@H](C)[C@H](O)[C@@H](C)CC)/C=C/[C@H]1CC=CC(=O)O1 [CALLYSTATIN A]
< 1.2 nM: [13]
active: [1] < 1.2 nM | [2] < 1.2 nM | [3] < 1.2 nM | [4] < 1.2 nM | [5] < 1.2 nM | [6] < 1.2 nM | [7] < 1.2 nM | [8] < 1.2 nM | [9] < 1.2 nM | [10] < 1.2 nM | [11] < 1.2 nM | [12] < 1.2 nM | [14] < 1.2 nM | [15] < 1.2 nM | [16] 329 nM | [17] < 1.2 nM | [18] < 1.2 nM | [19] < 1.2 nM | [20] < 1.2 nM | [21] < 1.2 nM | [22] < 1.2 nM | [23] < 1.2 nM | [24] < 1.2 nM | [25] < 1.2 nM | [26] < 1.2 nM | [27] < 1.2 nM | [28] 88.7 nM | [29] < 1.2 nM | [30] 16.8 nM | [31] < 1.2 nM | [32] < 1.2 nM | [33] < 1.2 nM | [34] < 1.2 nM | [35] < 1.2 nM | [36] < 1.2 nM | [37] < 1.2 nM | [38] < 1.2 nM | [39] < 1.2 nM | [41] < 1.2 nM | [42] < 1.2 nM | [43] < 1.2 nM | [44] < 1.2 nM | [45] < 1.2 nM | [46] < 1.2 nM | [47] < 1.2 nM | [48] < 1.2 nM | [49] < 1.2 nM | [50] < 1.2 nM | [51] < 1.2 nM | [52] < 1.2 nM | [53] < 1.2 nM | [54] < 1.2 nM | [55] < 1.2 nM | [56] < 1.2 nM | [57] < 1.2 nM | [58] < 1.2 nM | [59] < 1.2 nM
inactive: [40] 2670 nM
